Measured values as given in US20120208781A1, “AMINOGLYCOSIDE DOSING REGIMENS” (Achaogen, Inc., priority 2009, published 2012).
≈ marks a conversion by molar mass, not a printed value. Where two headings read alike, the source gives them in different places.

Tests used:
P. aeruginosa (PA) = experiment: MIC, broth microdilution, Brooklyn hospital isolates: P. aeruginosa; format: cell-based; conditions: PA (n = 33)
Protocol: (§1) In another study, the activity of Compound 1 against a collection of contemporary Gram-negative bacteria was determined. Unique patient isolates of P. aeruginosa (PA), A. baumannii (AB), K. pneumoniae (KP), E. coli (EC), and Enterobacter spp. (EB) from prior surveys at 16 Brooklyn, N.Y. hospitals were selected based on resistance patterns. The majority of isolates were fingerprinted by automated ribotyping. MICs were performed by broth microdilution. PCR was used to identify aminoglycoside-modifying enzymes (AMEs) in AB and KP and the KPC gene in Enterobacteriaceae (EN). The expression of the efflux genes mexA, C, E and X in PA, and adeB in AB was assessed by real-time RT-PCR.

A. baumannii (AB) = experiment: MIC, broth microdilution, Brooklyn hospital isolates: A. baumannii; format: cell-based; conditions: AB (n = 38)
Protocol: as §1

K. pneumoniae (KP) = experiment: MIC, broth microdilution, Brooklyn hospital isolates: K. pneumoniae; format: cell-based; conditions: KP (n = 71)
Protocol: as §1

E. coli (EC) = experiment: MIC, broth microdilution, Brooklyn hospital isolates: E. coli; format: cell-based; conditions: EC (n = 32)
Protocol: as §1

Enterobacter spp. (EB) = experiment: MIC, broth microdilution, Brooklyn hospital isolates: Enterobacter spp.; format: cell-based; conditions: EB (n = 30)
Protocol: as §1

rat kidney = experiment: Rat nephrotoxicity model: kidney histopathology (H&E); format: in vivo, Sprague-Dawley rats; conditions: rats, 14 d once-daily
Protocol: This rat nephrotoxicity study design used 14 days of once-daily dosing of aminoglycosides in adult Sprague-Dawley rats. Rats were allowed full access to food and water, and aminoglycosides were dosed subcutaneously at 1 mL/kg dosing volume, formulated in water. Nephrotoxicity was assessed by monitoring changes in serum markers of glomerular filtration rate (GFR), namely blood urea nitrogen (BUN) and serum creatinine. Microscopic examination of kidney slices after fixation and hematoxylin and eosin (H&E) staining was also utilized, scoring for tubular dilation, cellular casts, interstitial inflammation, and regenerative changes to the tubules.

[1] = rat, in vivo
Protocol: The AGs were administered to the rats according to the dose levels depicted in Table 6. The animals of Groups 11-13 were housed until day 15 even though their dosing ended on day 5, such that all animals were necropsied on the same day. Blood was collected in EDTA at days 0, 6, 11, and 15. 750 uL blood samples were collected and aliquoted into a lithium heparin tube and an EDTA tube. Clinical chemistry analysis was performed using the Idexx VETTEST 8008 system. Kidney samples were embedded in paraffin, sectioned, stained with hematoxylin and eosin and examined microscopically.

C[C@@H](O)[C@H]1C(=O)N2C(C(=O)O)=C(SCCN=CN)C[C@H]12 [Imipenem]
Susceptible (P. aeruginosa (PA)): 55% | MIC50 (P. aeruginosa (PA); Pseudomonas aeruginosa): 4 µg/mL (≈ 13.4 µM) | MIC90 (P. aeruginosa (PA); Pseudomonas aeruginosa): > 8 µg/mL | Susceptible (A. baumannii (AB)): 55% | MIC50 (A. baumannii (AB); Acinetobacter baumannii): 4 µg/mL (≈ 13.4 µM) | MIC90 (A. baumannii (AB); Acinetobacter baumannii): > 8 µg/mL | Susceptible (K. pneumoniae (KP)): 79% | MIC50 (K. pneumoniae (KP); Klebsiella pneumoniae): 0.25 µg/mL (≈ 0.835 µM) | MIC90 (K. pneumoniae (KP); Klebsiella pneumoniae): > 8 µg/mL | Susceptible (E. coli (EC)): 91% | MIC50 (E. coli (EC); Escherichia coli): 0.125 µg/mL (≈ 0.418 µM) | MIC90 (E. coli (EC); Escherichia coli): 4 µg/mL (≈ 13.4 µM) | Susceptible (Enterobacter spp. (EB)): 93% | MIC50 (Enterobacter spp. (EB); Enterobacter): 0.5 µg/mL (≈ 1.67 µM) | MIC90 (Enterobacter spp. (EB); Enterobacter): 2 µg/mL (≈ 6.68 µM)

NC[C@H]1O[C@H](O[C@H]2[C@H](O)[C@@H](O[C@H]3O[C@H](CO)[C@@H](O)[C@H](N)[C@H]3O)[C@H](N)C[C@@H]2N)[C@H](N)C[C@@H]1O [Tobramycin, tobramycin]
Histopathology score (0 to 5 Scale): Casts (rat kidney; 10 mg/kg): 0 +/− 0 | Histopathology score (0 to 5 Scale): Dilation (rat kidney; 10 mg/kg): 0.4 +/− 0.9 | Histopathology score (0 to 5 Scale): Inflammation (rat kidney; 10 mg/kg): 0.4 +/− 0.9 | Histopathology score (0 to 5 Scale): Regeneration (rat kidney; 10 mg/kg): 1 +/− 1.4 | Histopathology score (0 to 5 Scale): Casts (rat kidney; 30 mg/kg): 0.8 +/− 0.4 | Histopathology score (0 to 5 Scale): Dilation (rat kidney; 30 mg/kg): 1.6 +/− 1.1 | Histopathology score (0 to 5 Scale): Inflammation (rat kidney; 30 mg/kg): 1.8 +/− 0.8 | Histopathology score (0 to 5 Scale): Regeneration (rat kidney; 30 mg/kg): 2.2 +/− 0.8 | Histopathology score (0 to 5 Scale): Casts (rat kidney; 100 mg/kg): 1.8 +/− 0.8 | Histopathology score (0 to 5 Scale): Dilation (rat kidney; 100 mg/kg): 1.6 +/− 1.1 | Histopathology score (0 to 5 Scale): Inflammation (rat kidney; 100 mg/kg): 2.4 +/− 0.9 | Histopathology score (0 to 5 Scale): Regeneration (rat kidney; 100 mg/kg): 3 +/− 0.7 | ALB, day 6 ([1]; 10 mg/kg): 4.0 g/dL | ALP, day 6 ([1]; 10 mg/kg): 670 U/L | ALT ([1]; 10 mg/kg): 41 | ALT, day 6 ([1]; 10 mg/kg): 29 U/L | AMYL, day 6 ([1]; 10 mg/kg): 1719 U/L | AST, day 6 ([1]; 10 mg/kg): 65 U/L | BUN, day 6 ([1]; 10 mg/kg): 16 mg/dL | Body weight Day 1 ([1]; 10 mg/kg): 243 g | Body weight Day 2 ([1]; 10 mg/kg): 256 g | Body weight Day 3 ([1]; 10 mg/kg): 264 g | Body weight Day 4 ([1]; 10 mg/kg): 277 g | Body weight Day 5 ([1]; 10 mg/kg): 271 g | Body weight Day 6 ([1]; 10 mg/kg): 291 g | Body weight Day 7 ([1]; 10 mg/kg): 299 g | Body weight Day 8 ([1]; 10 mg/kg): 307 g | Body weight Day 9 ([1]; 10 mg/kg): 315 g | Body weight Day 10 ([1]; 10 mg/kg): 327 g | Body weight Day 11 ([1]; 10 mg/kg): 333 g | Body weight Day 12 ([1]; 10 mg/kg): 330 g | Body weight Day 13 ([1]; 10 mg/kg): 347 g | Body weight Day 14 ([1]; 10 mg/kg): 352 g | CHOL, day 6 ([1]; 10 mg/kg): 78 mg/dL | Cre, day 6 ([1]; 10 mg/kg): 0.8 mg/dL | GLOB, day 6 ([1]; 10 mg/kg): 1.8 g/dL | GLU, day 6 ([1]; 10 mg/kg): 154 mg/dL | T-PRO, day 6 ([1]; 10 mg/kg): 5.9 g/dL | TBIL ([1]; 10 mg/kg): 0.1 | TBIL, day 6 ([1]; 10 mg/kg): 0.1 mg/dL | ALB, day 6 ([1]; 30 mg/kg): 4.0 g/dL | ALP, day 6 ([1]; 30 mg/kg): 583 U/L | ALT, day 6 ([1]; 30 mg/kg): 32 U/L | AMYL, day 6 ([1]; 30 mg/kg): 1658 U/L | AST, day 6 ([1]; 30 mg/kg): 65 U/L | BUN, day 6 ([1]; 30 mg/kg): 15 mg/dL | Body weight Day 1 ([1]; 30 mg/kg): 250 g | Body weight Day 2 ([1]; 30 mg/kg): 256 g | Body weight Day 3 ([1]; 30 mg/kg): 264 g | Body weight Day 4 ([1]; 30 mg/kg): 270 g | Body weight Day 5 ([1]; 30 mg/kg): 280 g | Body weight Day 6 ([1]; 30 mg/kg): 288 g | Body weight Day 7 ([1]; 30 mg/kg): 294 g | Body weight Day 8 ([1]; 30 mg/kg): 295 g | Body weight Day 9 ([1]; 30 mg/kg): 307 g | Body weight Day 10 ([1]; 30 mg/kg): 318 g | Body weight Day 11 ([1]; 30 mg/kg): 323 g | Body weight Day 12 ([1]; 30 mg/kg): 321 g | Body weight Day 13 ([1]; 30 mg/kg): 321 g | Body weight Day 14 ([1]; 30 mg/kg): 330 g | CA ([1]; 30 mg/kg): 11.2 | CHOL, day 6 ([1]; 30 mg/kg): 81 mg/dL | Cre, day 6 ([1]; 30 mg/kg): 0.7 mg/dL | GLOB, day 6 ([1]; 30 mg/kg): 1.8 g/dL | GLU, day 6 ([1]; 30 mg/kg): 155 mg/dL | Organ weights Heart ([1]; 30 mg/kg): 1.44 | Organ weights Kidney Rt. ([1]; 30 mg/kg): 2.1 | Organ weights Liver ([1]; 30 mg/kg): 11.3 | Organ weights Lung ([1]; 30 mg/kg): 2.96 | Organ weights Pancreas ([1]; 30 mg/kg): 0.85 | Organ weights testes ([1]; 30 mg/kg): 3.45 | T-PRO, day 6 ([1]; 30 mg/kg): 5.8 g/dL | TBIL ([1]; 30 mg/kg): 0.1 | TBIL, day 6 ([1]; 30 mg/kg): 0.1 mg/dL | ALB, day 6 ([1]; 100 mg/kg): 4.0 g/dL | ALP, day 6 ([1]; 100 mg/kg): 596 U/L | ALT, day 6 ([1]; 100 mg/kg): 36 U/L | AMYL, day 6 ([1]; 100 mg/kg): 1560 U/L | AST, day 6 ([1]; 100 mg/kg): 75 U/L | BUN, day 6 ([1]; 100 mg/kg): 19 mg/dL | Body weight Day 1 ([1]; 100 mg/kg): 246 g | Body weight Day 2 ([1]; 100 mg/kg): 251 g | Body weight Day 3 ([1]; 100 mg/kg): 259 g | Body weight Day 4 ([1]; 100 mg/kg): 264 g | Body weight Day 5 ([1]; 100 mg/kg): 268 g | Body weight Day 6 ([1]; 100 mg/kg): 277 g | Body weight Day 7 ([1]; 100 mg/kg): 281 g | Body weight Day 8 ([1]; 100 mg/kg): 287 g | Body weight Day 9 ([1]; 100 mg/kg): 280 g | Body weight Day 10 ([1]; 100 mg/kg): 293 g | Body weight Day 11 ([1]; 100 mg/kg): 296 g | Body weight Day 12 ([1]; 100 mg/kg): 283 g | Body weight Day 13 ([1]; 100 mg/kg): 296 g | Body weight Day 14 ([1]; 100 mg/kg): 299 g | CA, day 6 ([1]; 100 mg/kg): 10.8 mg/dL | CHOL, day 6 ([1]; 100 mg/kg): 82 mg/dL | Cre ([1]; 100 mg/kg): 0.8 | Cre, day 6 ([1]; 100 mg/kg): 0.7 mg/dL | GLOB, day 6 ([1]; 100 mg/kg): 1.6 g/dL | GLU, day 6 ([1]; 100 mg/kg): 148 mg/dL | T-PRO, day 6 ([1]; 100 mg/kg): 5.6 g/dL | TBIL ([1]; 100 mg/kg): 0.1 | TBIL, day 6 ([1]; 100 mg/kg): 0.1 mg/dL
